Data on one compound can be found in US8956160B2, “Device and method for delivering an oral care agent” (Ranir, LLC, priority 2002, dated 2015).

A short description of the data set: Accelerated H2O2 stability study with individual ingredients of backing, anchor and oral care layers. The data set is classed as physicochemical. To be noted: 40° C./75% RH, up to 9 weeks. The protocol:
Accelerated H2O2 stability studies were conducted at 40° C./75% relative humidity (RH) with the individual ingredients used to form the backing, anchor and oral care layers as described in Example 1.

As to `OO` [Device H2O2, hydrogen peroxide], the H2O2 stability entry was “good stability”.
